One assay concerns Akt. Kind of assay: Western blot of Akt phosphorylation in rat primary cortical neurons (Shank3 knock down vs control). Type of assay: cell-based. As to conditions: for phosphorylation of Akt T308: 10 μM TG003, 60 minutes, DIV 16. From the text: E18 primary rat cortical neurons were dissected, cultured and infected 6 days after plating (DIV6) with indicated lentiviruses at MOI 10, as previously described (Proenca et al., 2013). Lentiviruses were produced by calcium phosphate transfection of HEK293T cells with packaging plasmids (Life Technologies) and transfer plasmid in 10 cm dishes. Cells were transferred to fresh medium 6 hrs. post-transfection. Four days post-transfection, the cell medium was collected and pooled from several dishes, cleared of cellular debris by 0.45 μm filtration, and concentrated 100× by centrifugation at 19,000 g for 90 min in a Beckman Ultracentrifuge using a SW28/SW32 rotor. Pellets were suspended in PBS/0.5% BSA and viral titer was determined by ELISA quantification of viral p24 antigen (Zeptometrix Corp, USA). For shRNA plasmid generation, oligonucleotides were annealed and ligated into lentiviral transfer plasmid pLKO.1-GFP vector at the AgeI/EcoRI sites. The target sequences of shRNAs that target rat and mouse Shank3 (5′-3′) are: […] […] (SEQ ID NO: 2), and […] (SEQ ID NO: 3). The latter was previously reported (Verpelli et al., 2011). A luciferase-targeting sequence was used as an shRNA control: […] (SEQ ID NO: 4).
For immunoprecipitation (IP) of HA-tagged Akt, neurons were lysed in IP buffer (20 mM Tris-HCl pH 7.4, 3 mM EDTA, 3 mM EGTA, 150 mM NaCl, 0.5% NP-40, and protease/phosphatase inhibitor cocktails (Roche)). Lysates were cleared by centrifugation at 13,000 rpm for 10 min and lysates normalized for protein abundance were immunoprecipitated with rabbit HA-tag antibody for 1 h at 4° C. Immuno-complexes were then captured by incubation for an additional 1 hr with Protein A agarose beads (Roche). Beads were washed three times with IP buffer and bound proteins were eluted with 2×SDS-PAGE sample buffer, then boiled for 5 min. For IP and analysis of ubiquitinated Myc-Clk2, neurons were lysed in Ubiquitin IP buffer (20 mM Tris-HCl pH 7.4, 3 mM EDTA, 3 mM EGTA, 150 mM NaCl, 1% Triton X-100, protease/phosphatase inhibitor cocktails (Roche), 5 mM N-ethylmaleimide, and 3 mM iodoacetamide) containing 1% SDS. Lysates were boiled for 20 min to denature proteins and then centrifuged for 10 min at 13,000 rpm. Lysates were subsequently diluted to 0.1% SDS with Ubiquitin IP buffer and immunoprecipitated with Myc antibody for 1 h. Complexes were then captured by addition of Protein G agarose (Roche) and additional 1 h incubation. Beads were washed 3× and eluted with 2×SDS-PAGE sample buffer, then boiled for 5 min. Samples prepared for SDS-PAGE were then resolved on 4-12% Novex gels (Life Technologies), transferred to PVDF membranes, blocked in 5% low-fat milk in TBS/0.1% Tween-20, and incubated overnight with primary antibodies. After washing and 1 h incubation with secondary antibodies, proteins were visualized by Chemiluminescent detection (Amersham-GE Healthcare Life Sciences).
To determine whether Shank3 deficiency impacts the PI3K-Akt-mTOR signaling pathway (FIG. 1A, gray highlight), lentiviral-mediated delivery of shRNAs was used to knock-down Shank3 in rat primary cortical neuron cultures. Cultured rat primary cortical neurons were transduced with lentiviruses encoding control shRNA or Shank3-shRNA at six days in vitro (DIV 6) and treated with BDNF (50 ng/ml) for 15 or 30 min at 14-16 days in vitro (DIV 14-16). Cell lysates were prepared in RIPA buffer prior to resolution by SDS-PAGE and Western blotting.
Cortical neurons, transduced with shRNA-expressing lentiviruses on DIV 6, were treated with 50 ng/ml BDNF or okadaic acid (100 nM) on DIV 16 and cell lysates were resolved by SDS-PAGE, followed by Western blotting.

Another assay deals with rpS6. Kind of assay: Western blot of rpS6 phosphorylation in Shank3 knock down primary neurons. It is filed as cell-based, rat. From the text:
E18 primary rat cortical neurons were dissected, cultured and infected 6 days after plating (DIV6) with indicated lentiviruses at MOI 10, as previously described (Proenca et al., 2013). Lentiviruses were produced by calcium phosphate transfection of HEK293T cells with packaging plasmids (Life Technologies) and transfer plasmid in 10 cm dishes. Cells were transferred to fresh medium 6 hrs. post-transfection. Four days post-transfection, the cell medium was collected and pooled from several dishes, cleared of cellular debris by 0.45 μm filtration, and concentrated 100× by centrifugation at 19,000 g for 90 min in a Beckman Ultracentrifuge using a SW28/SW32 rotor. Pellets were suspended in PBS/0.5% BSA and viral titer was determined by ELISA quantification of viral p24 antigen (Zeptometrix Corp, USA). For shRNA plasmid generation, oligonucleotides were annealed and ligated into lentiviral transfer plasmid pLKO.1-GFP vector at the AgeI/EcoRI sites. The target sequences of shRNAs that target rat and mouse Shank3 (5′-3′) are: […] (SEQ ID NO: 1), […] (SEQ ID NO: 2), and […] (SEQ ID NO: 3). The latter was previously reported (Verpelli et al., 2011). A luciferase-targeting sequence was used as an shRNA control: […] (SEQ ID NO: 4). […]

Another assay deals with Shank3^ΔC/ΔC mice. Kind of assay: Marble burying (avoidance behavior). Type of assay: in vivo, mouse. Particulars: 30 minutes, 20 marbles; TG003 treatment. The protocol: To assess avoidance behavior by marble burying, 20 black marbles were evenly distributed in rows in a novel home cage on top of 5 cm of fresh bedding and mice were left undisturbed for 30 minutes in the cage. The number of marbles to at least ⅔ depth were then recorded.

The mark [1] stands for this setting: Shank3 knock down primary neurons, SC79 treatment.

In the case of `CCOC(=O)C1=C(N)Oc2ccc(Cl)cc2C1C(C#N)C(=O)OCC` (stereo not drawn) [SC79], the Akt phosphorylation entry in the assay on Akt (setting [1]) is “restored Akt and rpS6 phosphorylation”. In addition, the rpS6 phosphorylation result in the assay on rpS6 (setting [1]) is “restored Akt and rpS6 phosphorylation”.

Consider `CCN1/C(=C/C(C)=O)Sc2ccc(OC)cc21` [TG003, (Z)-1-(3-ethyl-5-methoxy-2,3-dihydrobenzothiazol-2-ylidene)propan-2-one], for which the “phosphorylation of Akt T308” value was “restored to control levels in Shank3 knock down neurons” in the assay on Akt (Shank3 knock down neurons) and “refractory to TG003” with Akt (control neurons). Also, the rpS6 phosphorylation result in the assay on rpS6 (Shank3 knock-down (shShank3) neurons, TG003 (FIG. 3F)) is “restores Akt and rpS6 phosphorylation”. Moreover, the “avoidance behavior, marble burying” value in the assay on Shank3^ΔC/ΔC mice is recorded as “refractory to treatment with TG003”.
